The results in this text go back to PubChem BioAssay (NCI).

Among the test systems are EKVX NSCLC; HOP-62 NSCLC; M14 melanoma; MDA-MB-231 breast; NCI-H522 lung; OVCAR-5 ovarian; RPMI-8226 leukemia; SF-268 CNS.
Holding throughout (assay): inhibition of tumour cell growth, NCI panel, 48 h

Molecules are shown by their SMILES.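 Dose response: 5 concentrations. Exposure: 48 h. Format: 96-well plates. Endpoint: linear interpolation; highest concentration if not reached. GI50: concentration for 50% inhibition of growth. At the TGI there is no net growth.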

Turning to `O=[N+]([O-])/C=C/c1c(Cl)cccc1Cl`, the TGI in the experiment on EKVX NSCLC stood at 16.9 µM; with HOP-62 NSCLC it was 13 µM; with M14 melanoma it was 4.87 µM; in the experiment with MDA-MB-231 breast, 4.26 µM; with NCI-H522 lung it was 5.95 µM; in the experiment on OVCAR-5 ovarian it was 16.2 µM. For the same compound, the figures for the TGI with RPMI-8226 leukemia and with SF-268 CNS were 0.514 µM and 28.2 µM, respectively.

Turning to `O=S(=O)(NC1CCCCC1)c1ccc2c(c1)OCCOCCOCCOCCO2`, the TGI in the experiment on EKVX NSCLC, with HOP-62 NSCLC, in the experiment with M14 melanoma, in the experiment with MDA-MB-231 breast, in the experiment on NCI-H522 lung and in the experiment with RPMI-8226 leukemia was above 100 µM in each case. The same compound displayed a TGI in the experiment on SF-268 CNS above 100 µM.

For `Cc1ccc(/C=C/c2c(C(=O)/C=C/c3ccccc3)c(C)nc3ccccc23)cc1`, the GI50 with EKVX NSCLC is 1.85 µM; in the experiment on HOP-62 NSCLC, 1.74 µM; in the experiment on M14 melanoma, 1.87 µM; with NCI-H522 lung, 1.4 µM; with OVCAR-5 ovarian, 1.9 µM; with RPMI-8226 leukemia, 1.54 µM. The GI50 with SF-268 CNS was 2.06 µM. The TGI in the experiment with EKVX NSCLC was found to be 3.58 µM; in the experiment on HOP-62 NSCLC, 3.49 µM; in the experiment with M14 melanoma, 4.52 µM; in the experiment on NCI-H522 lung, 3.29 µM; in the experiment on OVCAR-5 ovarian, 3.53 µM; in the experiment on RPMI-8226 leukemia it was 5.13 µM. Moreover, the TGI with SF-268 CNS came to 5.42 µM.

Consider `COc1ccc2c(c1)/C(=C\c1ccncc1)C(=O)N2`, for which the GI50 with EKVX NSCLC is 13.9 µM; in the experiment with HOP-62 NSCLC, 21.8 µM; in the experiment with M14 melanoma, 8.33 µM; with MDA-MB-231 breast, 17.2 µM; in the experiment on NCI-H522 lung, 4 µM; in the experiment with OVCAR-5 ovarian it was 23 µM. For the same compound, the GI50 was 10.2 µM in the experiment with RPMI-8226 leukemia and 5.07 µM in the experiment on SF-268 CNS. The TGI in the experiment on EKVX NSCLC is 33 µM; in the experiment with HOP-62 NSCLC, 41 µM; in the experiment on M14 melanoma it was 26 µM; in the experiment on MDA-MB-231 breast, 36.7 µM; in the experiment on NCI-H522 lung it was 9.18 µM; in the experiment on OVCAR-5 ovarian it was 49.2 µM. Further, the TGI is 77.1 µM in the experiment with RPMI-8226 leukemia and 37.3 µM in the experiment with SF-268 CNS.

For the compound `COc1ccc2c(c1)[n+](=O)c(C(=O)c1cccs1)c(C(F)(F)F)n2[O-]`, the GI50 in the experiment with EKVX NSCLC is 1.48 µM; with HOP-62 NSCLC, 12.1 µM; with M14 melanoma, 10.9 µM; in the experiment with MDA-MB-231 breast it was 7.38 µM; in the experiment with NCI-H522 lung, 2 µM; in the experiment on OVCAR-5 ovarian it was 4.81 µM. Moreover, the GI50 in the experiment with RPMI-8226 leukemia is 3.41 µM; in the experiment with SF-268 CNS, 3.94 µM. The TGI in the experiment on EKVX NSCLC is 8.21 µM; with HOP-62 NSCLC, above 50 µM; in the experiment on M14 melanoma, above 50 µM; in the experiment on MDA-MB-231 breast, 25.4 µM; in the experiment on NCI-H522 lung, 12.8 µM; with OVCAR-5 ovarian, above 50 µM. The TGI in the experiment with RPMI-8226 leukemia is above 50 µM; in the experiment on SF-268 CNS, 27.4 µM.

With `CN(C)C(=O)Nc1nc2cc(Cl)c(Cl)cc2[nH]1`, the GI50 in the experiment with EKVX NSCLC is 5.3 µM; with HOP-62 NSCLC, 3.84 µM; in the experiment on M14 melanoma, 0.603 µM; in the experiment with MDA-MB-231 breast, 3.42 µM; with NCI-H522 lung it was 0.38 µM; in the experiment with OVCAR-5 ovarian, 19.8 µM. Moreover, the values for the GI50 in the experiment on RPMI-8226 leukemia and in the experiment with SF-268 CNS were 1.37 µM and 2.89 µM, respectively. The TGI in the experiment with EKVX NSCLC is above 100 µM; with HOP-62 NSCLC, above 50.7 µM; in the experiment with MDA-MB-231 breast, above 100 µM; with NCI-H522 lung, 4.14 µM; in the experiment on OVCAR-5 ovarian, above 100 µM; in the experiment with RPMI-8226 leukemia it was above 100 µM. Further, the TGI in the experiment on SF-268 CNS was above 100 µM.

For the compound `CCOc1ccc2c(-c3ccnc(Nc4cc(OC)cc(C(F)(F)F)c4)n3)cnn2n1`, the GI50 is above 25 µM in the experiment with EKVX NSCLC; above 25 µM in the experiment on HOP-62 NSCLC; above 25 µM in the experiment with M14 melanoma; 9.6 µM with MDA-MB-231 breast; 1.85 µM in the experiment on NCI-H522 lung; above 25 µM in the experiment with OVCAR-5 ovarian. The results for the GI50 in the experiment on RPMI-8226 leukemia and in the experiment with SF-268 CNS were above 18.3 µM and above 18.9 µM, respectively. The TGI in the experiment with EKVX NSCLC was above 25 µM; in the experiment with HOP-62 NSCLC, above 25 µM; in the experiment with M14 melanoma, above 25 µM; in the experiment on MDA-MB-231 breast, above 22.5 µM; in the experiment with NCI-H522 lung, above 10.9 µM; in the experiment with OVCAR-5 ovarian, above 25 µM. Moreover, the TGI in the experiment on RPMI-8226 leukemia and in the experiment on SF-268 CNS was above 25 µM in each case.

Take `COC(C)(C)[C@@H](O)[C@H](O)C[C@H](C)C1=C2CC[C@@H]3[C@@]4(C)CC[C@@H](OC(C)=O)C(C)(C)[C@@H]4C[C@@H](OC4OC(COC(C)=O)C(O)C(O)C4O)[C@@]3(C)[C@]2(C)CC1` (stereo not given in full): the GI50 in the experiment with EKVX NSCLC is 13 µM; in the experiment with HOP-62 NSCLC it was 14.3 µM; with M14 melanoma it was 12.4 µM; in the experiment with MDA-MB-231 breast it was 11.6 µM; in the experiment with NCI-H522 lung, 12.2 µM; with OVCAR-5 ovarian, 14.9 µM. The GI50 with RPMI-8226 leukemia was 4.15 µM; with SF-268 CNS, 10.3 µM. Besides, the TGI in the experiment on EKVX NSCLC amounted to 26.2 µM; with HOP-62 NSCLC it was 27.4 µM; in the experiment with M14 melanoma it was 25.4 µM; in the experiment on MDA-MB-231 breast, 23.8 µM; with NCI-H522 lung, 25.2 µM; in the experiment with OVCAR-5 ovarian, 28.1 µM. Moreover, the TGI in the experiment on RPMI-8226 leukemia worked out at 22.1 µM; with SF-268 CNS, 25.9 µM.

Consider `C#C[C@]1(O)CC[C@H]2[C@@H]3CC=C4c5sc(Nc6cc(F)ccc6F)nc5CC[C@]4(C)[C@H]3CC[C@@]21C`, for which the GI50 with EKVX NSCLC is 1.53 µM; with HOP-62 NSCLC, 1.77 µM; with M14 melanoma, 1.28 µM; with MDA-MB-231 breast, 1.82 µM; in the experiment with NCI-H522 lung it was 2.08 µM; in the experiment on OVCAR-5 ovarian, 1.93 µM. Further, the results for the GI50 in the experiment with RPMI-8226 leukemia and in the experiment on SF-268 CNS were 0.196 µM and 1.53 µM, respectively. Moreover, the TGI in the experiment on EKVX NSCLC was 3.06 µM; in the experiment on HOP-62 NSCLC it was 5.7 µM; with M14 melanoma, 2.77 µM; in the experiment on MDA-MB-231 breast it was 4.09 µM; in the experiment on NCI-H522 lung, 5.6 µM; in the experiment with OVCAR-5 ovarian, 5.18 µM. The TGI in the experiment on RPMI-8226 leukemia is 0.934 µM; with SF-268 CNS, 3.37 µM.

In the case of `COc1ccc2c(c1)nc(NNC(=O)c1cnccn1)c1cccn12`, the GI50 in the experiment on EKVX NSCLC is 0.161 µM; in the experiment with HOP-62 NSCLC, 0.0961 µM; in the experiment on M14 melanoma, 0.275 µM; in the experiment with MDA-MB-231 breast it was 0.682 µM; in the experiment on NCI-H522 lung it was 0.393 µM; in the experiment on OVCAR-5 ovarian, 0.962 µM. The GI50 in the experiment with RPMI-8226 leukemia is 0.435 µM; with SF-268 CNS, 0.138 µM. Moreover, the TGI was 3.7 µM with EKVX NSCLC; 3.33 µM in the experiment on HOP-62 NSCLC; 3.78 µM with M14 melanoma; 3.39 µM with MDA-MB-231 breast; 5.37 µM in the experiment with NCI-H522 lung; 5.11 µM in the experiment on OVCAR-5 ovarian. Moreover, the TGI in the experiment with RPMI-8226 leukemia was found to be 4.51 µM; with SF-268 CNS, 6.67 µM.
